Data taken from patent US8143268B2, “Bicyclic pyrimidinones and uses thereof” (Avexa Limited, priority 2006, dated 2012).
Read-outs that look alike come from different tables or passages of the source.

Experiments:
integrase = target: T1, integrase (Human immunodeficiency virus type 1 group M subtype B, UniProt P04585); assay: HIV integrase 3′ processing/strand transfer assay (IC50); format: biochemical
T1 construct: Each reaction (40 ul) contains 30 nM substrate DNA ad 400 ng integrase
Procedure: A combined 3′-processing/strand transfer assay procedure similar to that published (Ovenden et al. Phytochemistry. 2004 December; 65(24):3255-9.) could be used. The assay could be adapted to a 96 well plate format. Briefly, 400 ng of […] is incubated with 30 nM substrate DNA, consisting of annealed U5 LTR sequence oligonucleotides tagged with Digoxigenin (DIG; 5′-[…]-DIG-3′ (SEQ ID NO: 1)) or biotin (5′-Bio-[…]-3′ (SEQ ID NO: 2)) so that each substrate has either a DIG or Bio tag on opposite strands. Reactions are carried out for 2 hrs at 37° C., products generated as a result of 3′ processing and strand transfer activity are bound to streptavidin plates and detected with using anti-DIG-alkaline phosphatase conjugate and p-nitro phenyl phosphate substrate.
The strand transfer specific assay is of similar format to that of the 3′ processing/strand transfer combined assay except that it uses a biotinylated substrate that represents a pre-processed LTR end (5′-Bio-[…]-3′ (SEQ ID NO: 3)).
Oligonucleotides 5′-biotin-[…]-3′ (SEQ ID NO: 3) and 5′-[…]-Dig-3′ (SEQ ID NO: 1) are annealed in 10 mM Tris-Cl pH8.0, 100 mM NaCl, 2 mM EDTA at a final concentration of 30 uM.
Each reaction (40 ul) contains 30 nM substrate DNA ad 400 ng integrase in a reaction buffer comprising 20 mM Tris-Cl pH7.5, 25 mM NaCl, 5 mM MnCl2, 5 mM MgCl2, 5 mM B-ME, 50 ug/mL BSA, 0.05% (v/v) Tween-20.
Compounds are added in DMSO at 1/10 final reaction volume.
Reactions are incubated at 37° C. for 2 hr followed by the addition of 60 ul adjustment buffer containing 33 mM Tris-Cl pH 7.5, 664 mM NaCl, 16.6 mM EDTA, 0.166 mg/mL sonicated salmon sperm DNA.
The samples are then transferred to Streptavidin coated plates and products of the enzyme reactions are allowed to bind for 1 hr at room temperature.
Plates are then washed with 3×5 min with 30 mM NaOH, 200 mM NaCl, 1 mM EDTA then 3×5 min with wash 2: 10 mM Tris-Cl pH8.0, 6 mM EDTA, 0.1 mg/mL nuclease free BSA.
Anti-digoxigenin-phosphatase Fab (Roche, 0.1 U/mL)), diluted 1/2000 in wash 2 buffer is then added to each well and plates incubated 1 hr at 37° C.
Plates are then washed 3 times with TBS— Tween-20 (0.1%) then twice with TBS and 100 ul substrate (1 mg/mL p-nitrophenylphosphate in 0.1M Tris, pH 9.8) is added and plates incubated until sufficient colour is developed.

HIV = assay: Inhibition of HIV replication (p24); format: cell-based; details: Human immunodeficiency virus 1; concentration inhibiting HIV p24 production to 50% of no drug controls
Procedure: (§1) Cells are seeded into 96 well microtitre plates at 50,000 cells per 50 μl per well in RF-containing […] polybrene (RF-10/2). Compounds are prepared to 4× final concentration in RF-10/2, and 30 L added to cells. Virus (40 L in RF-10/2 containing 1600 pfu) is added to each well or 40 L RF-10/2 for negative controls and for assaying compound cytotoxicity. After 24 hrs, an additional 90 μL of media or media containing 1× compound is added to each well. At 4 days post infection, 100 μL of media is removed from each well and replaced with 100 μl of fresh media with or without compound. Forty eight hours later supernatants are harvested and levels of extracellular p24 determined. Supernatants are diluted 1 in 10,000 and p24 levels assayed using the Vironostika p24 assay kit. EC50 is calculated as the concentration required to inhibit HIV p24 production to 50% that of no drug controls.

[1] = Compound cytotoxicity (CC50); format: cell-based; details: wells without virus
Procedure: as §1

[2] = target: T2, HIV integrase enzyme (Q148K) (Human immunodeficiency virus type 1 group M subtype B, UniProt P04585, Q1295K); assay: Strand transfer assay, mutant (Q148K) HIV integrase; format: biochemical; details: FIG. 1
Procedure: A strand transfer assay procedure similar to that published (Ovenden et al. Phytochemistry. 2004 December; 65(24):3255-9.) is used. Briefly, 400 ng of the enzyme, wild type or drug resistant mutant, is mixed with the compound to be tested and incubated with 30 nM substrate DNA. The substrate DNA is designed to mimic HIV DNA termini that has undergone 3′ end processing, and consists of the annealed U5 LTR sequence oligonucleotides tagged with Digoxigenin (DIG; 5′-[…]-DIG-3′ (SEQ ID NO: 1)) or biotin (5′-Bio-[…]-3′ (SEQ ID NO: 3)) so that each substrate has either a DIG or Bio tag on opposite strands. Reactions are carried out for 1 hr at 37° C. Products generated as a result of strand transfer activity are bound to streptavidin plates and detected using anti-DIG-alkaline phosphatase conjugate and p-nitro phenyl phosphate substrate.
FIG. 1 represents as an example, strand transfer assay results from selected compounds against wild-type integrase and the integrase containing the Q148K mutation.
HIV integrase was mutated within a shuttle vector (pGEM) containing the majority of the HIV-I gag and pol sequence using site directed mutagenesis to generate integrase sequences that have been published as conferring resistance to published integrase inhibitors. These include, but are not limited to, mutations such as Q148K. […]

[3] = target: T2, HIV integrase enzyme (Q148K); details: Q148K mutant enzyme; cited from earlier work
[4] = integrase assay, which of Example 28.1/28.2 not stated, read-out: IC50

SMILES | IC50 (integrase; [4]) [µM] | IC50 (integrase) [µM] | EC50 (HIV) [µM] | CC50 at 6 days [1] [µM] | further results
Cc1ccc2nc(-c3nnc(-c4ccccc4)o3)c(O)c(=O)n2c1 | > 1 |  |  |  | 
Cc1ccc2nc(-c3nnc(Cc4ccc(F)cc4)s3)c(O)c(=O)n2c1 | 0.001 to 1 |  |  |  | 
Cc1ccc2nc(-c3ncc(-c4ccc(F)cc4)o3)c(O)c(=O)n2c1 | > 1 |  |  |  | 
Cc1ccc2nc(-c3ncc(Cc4ccc(F)cc4)o3)c(O)c(=O)n2c1 | 0.001 to 1 |  |  |  | 
Cc1ccc2nc(-c3noc(Cc4ccc(F)cc4)n3)c(O)c(=O)n2c1 | 0.001 to 1 |  |  |  | 
O=C(NCc1ccc(F)cc1)c1nc2ccc(Br)cn2c(=O)c1O [7-Br, CONHCH2 (4F-Ph), 7-Bromo-3-hydroxy-4-oxo-4H-pyrido[1,2-a]pyrimidine-2-carboxylic acid 4-fluoro-benzylamide] |  | 1 to 10 | 0.001 to 1 | > 1 | 
Cc1ccc2nc(C(=O)NCc3ccc(Cl)c(Cl)c3)c(O)c(=O)n2c1 [7-Me, CONHCH2 (3,4-ClPh), 3-Hydroxy-7-methyl-4-oxo-4H-pyrido[1,2-a]pyrimidine-2-carboxylic acid 3,4-dichloro-benzylamide] |  | 0.001 to 1 | 0.001 to 1 | > 1 | 
Cc1ccc2nc(C(=O)NCc3ccc(F)cc3)c(O)c(=O)n2c1 [7-Me, CONHCH2 (4F-Ph), 3-Hydroxy-7-methyl-4-oxo-4H-pyrido[1,2-a]pyrimidine-2-carboxylic acid 4-fluoro-benzylamide] |  | 1 to 10 | 0.001 to 1 | > 1 | 
O=C(NCc1ccc(Cl)c(Cl)c1)c1nc2ccc(N3CCOCC3)cn2c(=O)c1O [Example 6.13, 3-Hydroxy-7-morpholin-4-yl-4-oxo-4H-pyrido[1,2-a]pyrimidine-2-carboxylic acid 3,4-dichloro-benzylamide] |  |  |  |  | activity against HIV integrase enzyme (Q148K) [2]: particularly high activity
Cc1nnc(C(=O)NC(C)(C)c2nc(C(=O)NCc3ccc(F)cc3)c(O)c(=O)n2C)o1 [Raltegravir] |  |  |  |  | resistance of Q148K HIV integrase to published integrase inhibitors [3]: resistant
